Reference: the kinase profiling compilation of Christmann-Franck et al. (2016)

Key:
Experiment in all cases: Caliper, Mobility shift assay off-chip
AXL (human) = AXL (human) (UniProt P30530)
BLK (human) = BLK (human) (UniProt P51451)
CAMK2A (human) = CAMK2A (human) (UniProt Q9UQM7); details: compound 1.0 µM
CDK1 (human) = CDK1 (human) (UniProt P06493)
CDK5 CDK5R1 p25 (human) = CDK5 CDK5R1 p25 (human) (UniProt Q15078+Q00535)
CLK2 (human) = CLK2 (human) (UniProt P49760)
CSNK1G2 (human) = CSNK1G2 (human) (UniProt P78368)
CSNK1G3 (human) = CSNK1G3 (human) (UniProt Q9Y6M4)
DAPK1 (human) = DAPK1 (human) (UniProt P53355)
DCLK1 (human) = DCLK1 (human) (UniProt O15075)
DYRK3 (human) = DYRK3 (human) (UniProt O43781)
DYRK4 (human) = DYRK4 (human) (UniProt Q9NR20)
[1] = system: EGFR (human), P00533 [T790M]
EPHA8 (human) = EPHA8 (human) (UniProt P29322)
EPHB1 (human) = EPHB1 (human) (UniProt P54762)
[2] = system: FGFR3 (human), P22607 [K650E]
FRK (human) = FRK (human) (UniProt P42685)
HIPK1 (human) = HIPK1 (human) (UniProt Q86Z02)
HIPK2 (human) = HIPK2 (human) (UniProt Q9H2X6)
ITK (human) = ITK (human) (UniProt Q08881)
KIT (human) = KIT (human) (UniProt P10721)
MARK4 (human) = MARK4 (human) (UniProt Q96L34)
MERTK (human) = MERTK (human) (UniProt Q12866)
NTRK3 (human) = NTRK3 (human) (UniProt Q16288)
PASK (human) = PASK (human) (UniProt Q96RG2)
[3] = system: PDGFRA (human), P16234 [V561D]
PHKG1 (human) = PHKG1 (human) (UniProt Q16816)
PRKCI (human) = PRKCI (human) (UniProt P41743)
ROCK1 (human) = ROCK1 (human) (UniProt Q13464)
ROS1 (human) = ROS1 (human) (UniProt P08922)
RPS6KA6 KD1 KD2 (human) = RPS6KA6 KD1 KD2 (human) (UniProt Q9UK32)
TXK (human) = TXK (human) (UniProt P42681)
YES1 (human) = YES1 (human) (UniProt P07947)
Sequence of YES1 (human) (P07947 whole entry, looked up): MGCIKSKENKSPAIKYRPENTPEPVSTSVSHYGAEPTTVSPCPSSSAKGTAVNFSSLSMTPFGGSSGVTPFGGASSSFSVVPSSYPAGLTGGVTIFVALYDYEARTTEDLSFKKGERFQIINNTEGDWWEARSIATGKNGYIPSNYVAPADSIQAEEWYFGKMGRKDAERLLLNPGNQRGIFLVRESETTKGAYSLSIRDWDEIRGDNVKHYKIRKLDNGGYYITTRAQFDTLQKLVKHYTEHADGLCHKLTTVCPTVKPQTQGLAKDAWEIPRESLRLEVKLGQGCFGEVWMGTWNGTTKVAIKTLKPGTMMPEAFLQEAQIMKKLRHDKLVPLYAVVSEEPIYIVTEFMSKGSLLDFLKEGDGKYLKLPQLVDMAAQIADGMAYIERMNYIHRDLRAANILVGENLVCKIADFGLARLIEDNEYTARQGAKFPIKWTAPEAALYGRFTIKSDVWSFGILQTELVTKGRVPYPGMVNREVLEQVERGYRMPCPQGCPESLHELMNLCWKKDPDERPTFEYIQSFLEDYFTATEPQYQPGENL

Sequence of EGFR (human), P00533 [T790M] (P00533 whole entry T790M, looked up): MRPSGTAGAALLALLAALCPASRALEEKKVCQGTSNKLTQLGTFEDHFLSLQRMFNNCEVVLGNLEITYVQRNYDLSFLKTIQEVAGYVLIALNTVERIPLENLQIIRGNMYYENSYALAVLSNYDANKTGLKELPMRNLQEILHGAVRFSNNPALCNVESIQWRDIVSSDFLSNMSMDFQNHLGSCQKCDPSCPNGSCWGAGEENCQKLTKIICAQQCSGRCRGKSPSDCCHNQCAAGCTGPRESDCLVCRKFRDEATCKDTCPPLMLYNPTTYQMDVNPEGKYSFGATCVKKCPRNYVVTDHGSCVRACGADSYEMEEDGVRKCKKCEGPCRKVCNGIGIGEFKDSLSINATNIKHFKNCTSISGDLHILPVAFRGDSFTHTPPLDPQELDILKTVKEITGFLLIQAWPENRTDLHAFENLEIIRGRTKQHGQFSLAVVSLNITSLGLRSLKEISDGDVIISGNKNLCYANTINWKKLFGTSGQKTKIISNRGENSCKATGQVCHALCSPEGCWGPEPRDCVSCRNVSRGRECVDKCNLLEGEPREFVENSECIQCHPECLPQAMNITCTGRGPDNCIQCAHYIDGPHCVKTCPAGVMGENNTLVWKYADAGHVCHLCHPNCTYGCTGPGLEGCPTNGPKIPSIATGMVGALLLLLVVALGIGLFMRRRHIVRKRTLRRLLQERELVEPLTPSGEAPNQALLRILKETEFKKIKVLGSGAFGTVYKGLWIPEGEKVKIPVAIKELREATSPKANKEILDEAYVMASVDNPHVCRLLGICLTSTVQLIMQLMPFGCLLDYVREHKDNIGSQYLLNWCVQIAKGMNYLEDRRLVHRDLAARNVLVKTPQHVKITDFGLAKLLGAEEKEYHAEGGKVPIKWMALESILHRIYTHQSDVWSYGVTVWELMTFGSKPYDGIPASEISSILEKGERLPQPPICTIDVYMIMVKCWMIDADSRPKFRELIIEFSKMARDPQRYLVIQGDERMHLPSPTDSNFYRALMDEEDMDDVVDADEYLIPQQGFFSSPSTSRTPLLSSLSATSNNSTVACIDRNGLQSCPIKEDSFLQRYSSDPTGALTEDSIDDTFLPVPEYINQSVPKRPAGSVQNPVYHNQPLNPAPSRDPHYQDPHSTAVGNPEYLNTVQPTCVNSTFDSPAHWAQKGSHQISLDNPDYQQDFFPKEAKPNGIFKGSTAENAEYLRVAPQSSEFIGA
Sequence of DYRK4 (human) (Q9NR20 whole entry, looked up): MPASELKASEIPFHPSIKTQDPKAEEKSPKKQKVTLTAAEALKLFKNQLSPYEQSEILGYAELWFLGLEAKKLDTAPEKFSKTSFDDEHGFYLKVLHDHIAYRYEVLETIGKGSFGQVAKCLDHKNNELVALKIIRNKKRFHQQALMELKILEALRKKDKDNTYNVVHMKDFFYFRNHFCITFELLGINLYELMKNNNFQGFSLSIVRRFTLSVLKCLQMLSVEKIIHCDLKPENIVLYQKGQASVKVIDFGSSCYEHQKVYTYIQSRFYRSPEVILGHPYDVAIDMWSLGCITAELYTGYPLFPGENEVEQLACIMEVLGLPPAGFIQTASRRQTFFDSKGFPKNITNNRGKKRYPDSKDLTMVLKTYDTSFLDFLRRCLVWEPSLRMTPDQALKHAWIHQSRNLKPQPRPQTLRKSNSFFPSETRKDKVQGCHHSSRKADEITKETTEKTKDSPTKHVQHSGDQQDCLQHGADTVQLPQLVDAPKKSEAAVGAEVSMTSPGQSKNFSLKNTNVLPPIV
Sequence of PRKCI (human) (P41743 whole entry, looked up): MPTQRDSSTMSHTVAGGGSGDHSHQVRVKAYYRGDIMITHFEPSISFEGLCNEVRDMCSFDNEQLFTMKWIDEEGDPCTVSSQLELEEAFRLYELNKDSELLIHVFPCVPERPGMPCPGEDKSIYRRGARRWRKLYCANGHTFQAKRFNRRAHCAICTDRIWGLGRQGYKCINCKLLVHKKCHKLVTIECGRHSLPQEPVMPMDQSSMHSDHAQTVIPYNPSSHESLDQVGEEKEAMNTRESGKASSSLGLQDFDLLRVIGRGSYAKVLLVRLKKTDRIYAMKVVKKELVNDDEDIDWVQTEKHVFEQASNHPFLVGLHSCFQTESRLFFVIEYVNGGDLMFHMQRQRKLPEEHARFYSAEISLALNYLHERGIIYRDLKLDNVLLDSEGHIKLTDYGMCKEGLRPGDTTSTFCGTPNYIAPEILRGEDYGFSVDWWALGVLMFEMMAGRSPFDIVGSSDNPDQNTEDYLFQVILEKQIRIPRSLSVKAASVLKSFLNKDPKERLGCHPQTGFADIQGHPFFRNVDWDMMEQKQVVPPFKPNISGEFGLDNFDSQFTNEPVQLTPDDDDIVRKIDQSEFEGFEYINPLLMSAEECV
Sequence of BLK (human) (P51451 whole entry, looked up): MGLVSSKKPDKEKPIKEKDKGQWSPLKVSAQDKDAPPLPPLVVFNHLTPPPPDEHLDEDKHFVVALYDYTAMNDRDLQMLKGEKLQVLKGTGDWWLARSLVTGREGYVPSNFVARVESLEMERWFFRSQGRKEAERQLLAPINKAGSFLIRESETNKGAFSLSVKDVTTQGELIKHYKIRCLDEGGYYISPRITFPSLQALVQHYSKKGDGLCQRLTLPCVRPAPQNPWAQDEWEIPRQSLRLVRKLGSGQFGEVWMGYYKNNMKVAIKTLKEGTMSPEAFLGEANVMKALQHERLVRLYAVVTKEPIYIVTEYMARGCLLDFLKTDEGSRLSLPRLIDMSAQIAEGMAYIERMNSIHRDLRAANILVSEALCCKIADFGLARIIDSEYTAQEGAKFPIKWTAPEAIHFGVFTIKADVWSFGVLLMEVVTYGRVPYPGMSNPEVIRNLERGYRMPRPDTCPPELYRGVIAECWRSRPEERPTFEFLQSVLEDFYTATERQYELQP
Sequence of DAPK1 (human) (P53355 whole entry, looked up): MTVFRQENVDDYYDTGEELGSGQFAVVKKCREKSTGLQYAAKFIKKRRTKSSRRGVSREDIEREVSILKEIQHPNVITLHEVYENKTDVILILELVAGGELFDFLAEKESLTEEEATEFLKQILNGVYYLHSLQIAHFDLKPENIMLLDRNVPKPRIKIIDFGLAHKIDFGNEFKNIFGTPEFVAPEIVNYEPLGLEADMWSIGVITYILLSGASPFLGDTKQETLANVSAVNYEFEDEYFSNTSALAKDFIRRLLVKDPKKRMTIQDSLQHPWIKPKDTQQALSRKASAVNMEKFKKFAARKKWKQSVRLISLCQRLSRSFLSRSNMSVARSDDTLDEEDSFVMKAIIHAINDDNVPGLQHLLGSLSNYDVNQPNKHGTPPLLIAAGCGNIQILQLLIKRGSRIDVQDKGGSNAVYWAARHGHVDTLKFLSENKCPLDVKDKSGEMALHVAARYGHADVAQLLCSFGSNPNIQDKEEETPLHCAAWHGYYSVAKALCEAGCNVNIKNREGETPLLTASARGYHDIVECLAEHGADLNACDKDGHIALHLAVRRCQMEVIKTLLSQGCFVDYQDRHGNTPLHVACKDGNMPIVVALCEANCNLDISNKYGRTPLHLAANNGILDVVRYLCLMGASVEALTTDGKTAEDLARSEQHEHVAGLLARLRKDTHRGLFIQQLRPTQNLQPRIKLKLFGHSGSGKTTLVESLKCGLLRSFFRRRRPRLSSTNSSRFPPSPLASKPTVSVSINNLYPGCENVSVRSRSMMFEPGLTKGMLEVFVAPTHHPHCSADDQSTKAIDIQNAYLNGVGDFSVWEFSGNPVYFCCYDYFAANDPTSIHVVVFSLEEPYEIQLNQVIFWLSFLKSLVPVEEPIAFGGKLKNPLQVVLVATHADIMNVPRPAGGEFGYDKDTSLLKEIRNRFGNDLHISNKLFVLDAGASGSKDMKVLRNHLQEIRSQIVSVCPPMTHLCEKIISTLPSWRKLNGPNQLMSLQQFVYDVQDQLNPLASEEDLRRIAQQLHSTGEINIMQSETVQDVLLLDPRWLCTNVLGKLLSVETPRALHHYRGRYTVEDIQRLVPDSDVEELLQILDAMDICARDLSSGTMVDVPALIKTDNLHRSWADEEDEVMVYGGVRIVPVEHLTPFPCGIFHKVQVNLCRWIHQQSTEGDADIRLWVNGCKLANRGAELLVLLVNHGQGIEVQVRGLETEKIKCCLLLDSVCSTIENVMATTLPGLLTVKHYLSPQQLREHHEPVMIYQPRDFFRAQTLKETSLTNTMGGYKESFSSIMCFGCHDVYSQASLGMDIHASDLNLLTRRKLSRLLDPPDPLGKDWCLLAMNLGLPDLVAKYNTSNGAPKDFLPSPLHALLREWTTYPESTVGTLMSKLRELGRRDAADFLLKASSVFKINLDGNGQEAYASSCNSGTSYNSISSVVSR

CN(c1ccc2ccc3ncc(-c4cnn(C)c4)cc3c(=O)c2c1)S(=O)(=O)NCc1ccccn1
inhibition (AXL (human); compound 0.1 µM): 30.6%
inhibition (AXL (human); compound 1.0 µM): 77.3%
inhibition (BLK (human); compound 0.1 µM): -30.4%
inhibition (BLK (human); compound 1.0 µM): 29.2%
inhibition (CAMK2A (human)): 4.4%
inhibition (CDK1 (human); compound 0.1 µM): 1.3%
inhibition (CDK1 (human); compound 1.0 µM): 4.7%
inhibition (CDK5 CDK5R1 p25 (human); compound 0.1 µM): -5.4%
inhibition (CDK5 CDK5R1 p25 (human); compound 1.0 µM): 11.9%
inhibition (CLK2 (human); compound 0.1 µM): 3.2%
inhibition (CLK2 (human); compound 1.0 µM): 16.8%
inhibition (CSNK1G2 (human); compound 0.1 µM): -9%
inhibition (CSNK1G2 (human); compound 1.0 µM): 1.2%
inhibition (CSNK1G3 (human); compound 0.1 µM): 9.7%
inhibition (CSNK1G3 (human); compound 1.0 µM): 6.5%
inhibition (DAPK1 (human); compound 0.1 µM): 3%
inhibition (DAPK1 (human); compound 1.0 µM): 9.2%
inhibition (DCLK1 (human); compound 0.1 µM): 3.5%
inhibition (DCLK1 (human); compound 1.0 µM): 5.9%
inhibition (DYRK3 (human); compound 0.1 µM): 9.6%
inhibition (DYRK3 (human); compound 1.0 µM): 21.5%
inhibition (DYRK4 (human); compound 0.1 µM): 16.9%
inhibition (DYRK4 (human); compound 1.0 µM): 1.3%
inhibition ([1]; compound 0.1 µM): 11.2%
inhibition ([1]; compound 1.0 µM): 1.9%
inhibition (EPHA8 (human); compound 0.1 µM): -1.9%
inhibition (EPHA8 (human); compound 1.0 µM): 4.6%
inhibition (EPHB1 (human); compound 0.1 µM): 1.8%
inhibition (EPHB1 (human); compound 1.0 µM): 9.7%
inhibition ([2]; compound 0.1 µM): 15.1%
inhibition ([2]; compound 1.0 µM): 59.4%
inhibition (FRK (human); compound 0.1 µM): 1%
inhibition (FRK (human); compound 1.0 µM): 8%
inhibition (HIPK1 (human); compound 0.1 µM): 1%
inhibition (HIPK1 (human); compound 1.0 µM): 5.5%
inhibition (HIPK2 (human); compound 0.1 µM): 8.7%
inhibition (HIPK2 (human); compound 1.0 µM): 14.7%
inhibition (ITK (human); compound 0.1 µM): 7%
inhibition (ITK (human); compound 1.0 µM): 34.9%
inhibition (KIT (human); compound 0.1 µM): -0.2%
inhibition (KIT (human); compound 1.0 µM): 8.9%
inhibition (MARK4 (human); compound 0.1 µM): 7.3%
inhibition (MARK4 (human); compound 1.0 µM): 16%
inhibition (MERTK (human); compound 0.1 µM): 52.7%
inhibition (MERTK (human); compound 1.0 µM): 94.5%
inhibition (NTRK3 (human); compound 0.1 µM): 39.3%
inhibition (NTRK3 (human); compound 1.0 µM): 83.6%
inhibition (PASK (human); compound 0.1 µM): -10.1%
inhibition (PASK (human); compound 1.0 µM): 5.9%
inhibition ([3]; compound 0.1 µM): 16.9%
inhibition ([3]; compound 1.0 µM): 61.1%
inhibition (PHKG1 (human); compound 0.1 µM): -1.3%
inhibition (PHKG1 (human); compound 1.0 µM): 17.4%
inhibition (PRKCI (human); compound 0.1 µM): 3.9%
inhibition (PRKCI (human); compound 1.0 µM): -0.5%
inhibition (ROCK1 (human); compound 0.1 µM): 14.4%
inhibition (ROCK1 (human); compound 1.0 µM): 1.7%
inhibition (ROS1 (human); compound 0.1 µM): 1%
inhibition (ROS1 (human); compound 1.0 µM): 12%
inhibition (RPS6KA6 KD1 KD2 (human); compound 0.1 µM): 0.5%
inhibition (RPS6KA6 KD1 KD2 (human); compound 1.0 µM): 5.6%
inhibition (TXK (human); compound 0.1 µM): 0.6%
inhibition (TXK (human); compound 1.0 µM): 19%
inhibition (YES1 (human); compound 0.1 µM): -7.2%
inhibition (YES1 (human); compound 1.0 µM): 29.9%
